Assay results published in article PMC8583417, “Evaluation of the Antimicrobial Efficacy of N-Acetyl-L-Cysteine, Rhamnolipids, and Usnic Acid—Novel Approaches to Fight Food-Borne Pathogens” (International Journal of Molecular Sciences, 2021).

Key:
S. aureus 816 [1] = assay: MIC for metabolic activity of preformed biofilm (MTT reduction assay); format: cell-based, Staphylococcus aureus; conditions: for MICMPB80: ≥80% inhibition, 20 h with substance
Method: (§1) Ten concentrations of NAC, RLs, and UA were tested to determine the minimum inhibitory concentration for planktonic growth, and subsequently, the six highest concentrations were applied on preformed biofilms to evaluate the biofilm eradication ability of the compounds. MIC was defined as the lowest substance concentration able to inhibit at least 80% of microbial growth (MICPC80 for planktonic cells, MICBC80 for further growth of biofilm cells), inhibit 80% of metabolic activity (MICBM80 for biofilm metabolic activity, MICMPB80 for metabolic activity of preformed biofilm), prevent biofilm formation by at least 80% (MICBF80 for biofilm formation), or reduce a preformed biofilm by at least 80% (MICBR80 for biofilm reduction). The results of MICs are summarized in Table 1 (planktonic cells) and Table 2 (biofilm-associated cells).
(§2) The determination of MICs was performed according to Chlumsky et al.. Briefly, 96-well flat-bottomed microtiter plates were inoculated with 75 µL (for biofilm formation) or 100 µL (for preformed biofilm) of bacterial suspension (A625nm 0.08 to 0.1) in technical triplicates and were then carefully mixed with the dilution series of the test substances (24 h cultivation at 25 °C for S. Infantis, 37 °C for other strains) or were directly cultivated to preform biofilms (18 h). For a positive control of bacterial growth, the inoculum was mixed with a pure sterile medium. Furthermore, the sterile medium was included in the plate as a marker of potential microbial contamination. To evaluate planktonic cells growth (MICPC80) and further growth of biofilm cells (MICBC80), the optical density of the content of the microtiter plates was measured spectrophotometrically at 625 nm before and after 24 h (for biofilm formation) of cultivation or before and after additional 20 h incubation with the tested compound (for preformed biofilm). The difference of A625nm was considered as a measure of the ability of cells to grow in the presence of the tested substances. To evaluate the inhibition of biofilm formation (MICBF80) and reduction in preformed biofilms (MICBR80), biomass was quantified using crystal violet staining, and its metabolic activity (MICBM80 and MICMPB80) was estimated by using the MTT (thiazyl tetrazolium bromide, Sigma-Aldrich, USA) reduction assay, both measured spectrophotometrically at 595 nm.
(§3) All inhibitions were calculated using the formula of Chlumsky et al. below (Equation (1)):(1) A625(595)nm inhibition (%)=A625(595)nm (control) – A625(595)nm(natural substance)/A625(595)nm (control)× 100 where A625(595)nm (control) is the absorbance of bacterial suspension/biofilm itself, and A625(595)nm(natural substance) is the absorbance of the bacterial suspension/biofilm with the added natural substance (NAC, RLs, and UA).
(§4) When the minimum inhibitory concentration could not be determined, the MIC was established as >the highest tested concentration for NAC, RLs, and UA.

S. Infantis S59 = assay: MIC for biofilm metabolic activity (MTT reduction assay); format: cell-based, Salmonella enterica Infantis; conditions: for MICBM80: ≥80% inhibition, 24 h
Method: as §1, §2, §3, §4

S. Infantis S13 = assay: as above; format: cell-based, Salmonella enterica Infantis; conditions: for MICBM80: ≥80% inhibition, 24 h
Method: as §1, §2, §3, §4

S. aureus 816 [2] = assay: MIC for planktonic cell growth (A625nm); format: cell-based, Staphylococcus aureus; conditions: ≥80% inhibition, 24 h
Method: as §1
as §2, with “Furthermore, the sterile medium was included in the plate as a marker of potential microbial contamination.” left out, “The difference of A625nm was considered as a measure of the ability of cells to grow in the presence of the tested substances.” left out
as §3, §4

S. aureus 1241 [3] = assay: MIC for planktonic cell growth (A625nm); format: cell-based, Staphylococcus aureus; conditions: ≥80% inhibition, 24 h
Method: as §1
as §2, with “Furthermore, the sterile medium was included in the plate as a marker of potential microbial contamination.” left out, “The difference of A625nm was considered as a measure of the ability of cells to grow in the presence of the tested substances.” left out
as §3, §4

S. aureus 816 [4] = assay: CLSM analysis, biofilm removal (preformed biofilm); format: cell-based, Staphylococcus aureus; conditions: for proportion of membrane-compromised cells: 20 h; for Thickness (µm) subCBM80: substance at subinhibitory concentration
Method: (§5) Biofilm prevention and removal analyses were performed using previously determined minimum inhibitory and subinhibitory concentrations for metabolic activity (MICBM80, subCBM80; MICMPB80, subCMPB80) of NAC, RLs, and UA specific for each tested strain. Selected concentrations were used to evaluate the inhibition of biofilm formation (biofilm prevention) and the reduction in previously formed biofilms (biofilm removal) for the same set of microorganisms, with the exception of S. Infantis, which was excluded from the analysis due to its inability to form biofilm in the selected microtiter plate. Biofilm prevention and removal were observed using CLSM with specific staining to distinguish between live and membrane-compromised cells. Images were analyzed to evaluate (i). the total volume of the biomass, (ii). ratios of live and membrane-compromised cells, and (iii). to calculate biofilm volume reduction for individual organisms after the respective treatment types. The total biofilm volume was normalized by the area of the well and expressed as an average biofilm thickness. Complete data are provided in Supplementary Materials (Tables S1–S8).
(§6) At first, bacterial suspensions were cultivated in microtiter plates to produce overnight biofilms (18 h). […] cells were then washed out, and the remaining biofilms were further cultivated for an additional 20 h with selected compounds. Following biofilm cultivation, biomass was observed using CLSM with live/membrane-compromised cell staining. Biomass images from biofilm removal treatments were similar to results from biofilm prevention, where biomass was highly diversified across the bacterial species and strains. Visually, biomass images were fairly consistent within the quadruplicates for each tested organism. Non-treated biofilms of S. aureus contained consistent biomass spread across the well (S. aureus 816) or grown around the edges (S. aureus 1241). […] PI staining identified membrane-compromised cells spread across S. aureus 816 biomass and incorporated in the edge of biomass and/or in the central part of the well (Figure 4B,C). […] Membrane-compromised cells appeared contained around the edges (S. aureus 1241), disturbed across the well (in both strains of L. monocytogenes), or in separated biomass in the central part of the well (in both strains of E. coli when treated with the subinhibitory concentration of RLs) (Figure 4D,E).
(§7) For both inhibition and reduction of biofilms, overnight cultures from BHI were diluted in TSB + 1% Glc to reach an absorbance of 0.08 to 0.1 at 625 nm. The inoculum (150 µL) was transferred into wells of the 96-well flat-bottomed Ibidiμ-Plate (Ibidi, Gräfelfing, Germany) and mixed with 150 µL of each of the three tested substances in technical quadruplicates, followed by incubation at 37 °C for 24 h. Simultaneously, the prepared bacterial suspensions were inoculated to an additional microtiter plate (200 µL) and allowed to form biofilm overnight (18 h at 37 °C). After the incubation, the content of the well was drained off, and 200 µL of each of the three tested substances was added to the plate, which was then incubated for an additional 20 h. The used concentrations of the substances represented the subinhibitory and minimum inhibitory concentrations for metabolic activity (subCBM80, MICBM80; subCMPB80, MICMPB80). Both setups contained a positive control of the bacterial growth (inoculum mixed with sterile TSB + 1% Glc medium) and a control monitoring microbial contamination (sterile medium). Non-treated wells were used as a positive control for comparison between non-treated and treated biofilm mass.
(§8) Prior to the imaging, the wells were stained with the LIVE/DEAD® BacLight™ Bacterial Viability Kit (Thermo Fisher Scientific, MA, USA) following the manufacturer’s guidelines and Drago et al.. […]

S. aureus 1241 [5] = assay: CLSM analysis, biofilm removal (preformed biofilm); format: cell-based, Staphylococcus aureus; conditions: 20 h exposure, mean ± SD; for Thickness (µm) MICBM80: substance at its MIC; for Thickness (µm) subCBM80: substance at subinhibitory concentration
Method: as §5, §6, §7, §8

[6] = preformed biofilm, 20 h exposure, mean ± SD

How did the “maximal achieved inhibition (MICMPB80 not reached)” value (S. aureus 816 [1]; within tested concentrations) turn out when `CC(=O)c1c(O)c(C)c(O)c2c1OC1=CC(=O)C(C(C)=O)C(=O)C12C` (single isomer, unassigned; (+)) [UA, (+)-usnic acid] was run?
Its value is 67%.

What about the MICMPB80 (S. aureus 816 [1]) of the same molecule?
Its MICMPB80 is over 31.3 µg/mL.

What about the “maximal achieved inhibition (MICBM80 not reached)” value (S. Infantis S59; within tested concentrations) of the same molecule?
Its value is 47%.

And the MICBM80 (S. Infantis S59)?
Its MICBM80 is over 31.3 µg/mL.

And the “maximal achieved inhibition (MICBM80 not reached)” value (S. Infantis S13; within tested concentrations)?
The value was 41%.

What about the MICBM80 (S. Infantis S13) of the same molecule?
The MICBM80 was over 31.3 µg/mL.

And the MICPC80 (S. aureus 816 [2])?
Its MICPC80 is 0.24 µg/mL.

What about the MICPC80 (S. aureus 1241 [3]) of the same molecule?
Its MICPC80 is 0.24 µg/mL.

What about the “proportion of membrane-compromised cells” value (S. aureus 816 [4]; subinhibitory concentration) of the same molecule?
The value was “up to 40%”.

And the “Thickness (µm) subCBM80” value (S. aureus 816 [4]; [6])?
The value was 152 ± 68.6 µm.

And the “Thickness (µm) MICBM80” value (S. aureus 1241 [5])?
Its value is 210 ± 32.5 µm.

And the “Thickness (µm) subCBM80” value (S. aureus 1241 [5])?
Its value is 251 ± 15.7 µm.

What does the source list for `CC(=O)N[C@@H](CS)C(=O)O` [NAC, N-Acetyl-L-cysteine]?
MICMPB80 (S. aureus 816 [1]): 12,500 µg/mL; MICBM80 (S. Infantis S59): 6250 µg/mL; MICBM80 (S. Infantis S13): 12,500 µg/mL; MICPC80 (S. aureus 816 [2]): 3130 µg/mL; MICPC80 (S. aureus 1241 [3]): 3130 µg/mL; proportion of membrane-compromised cells (S. aureus 816 [4]; MIC): up to 20%; Thickness (µm) MICBM80 (S. aureus 816 [4]; preformed biofilm, 20 h exposure, substance at its MIC, mean ± SD): 156 ± 80.4 µm; Thickness (µm) subCBM80 (S. aureus 816 [4]; [6]): 247 ± 64.7 µm; Thickness (µm) MICBM80 (S. aureus 1241 [5]): 253 ± 44.4 µm; Thickness (µm) subCBM80 (S. aureus 1241 [5]): 266 ± 37.9 µm
